Experimental data reported in patent publication US20190375708A1 (VenatoRx Pharmaceuticals, Inc., priority 2018, published 2019).

Assays:
[1] = In vitro cytotoxicity assay (MTT cell viability) in HepG2 cells; format: cell-based, human; details: human
Method in brief: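 Viability measured by MTT conversion, absorbance at 492 nm, as percent of vehicle-treated wells. Compounds spanned 30 μM to 1.0 nM in half-log steps over a 7-day exposure of parental HepG2 cells; CC50 derived by 4-parameter curve fit.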

[2] = test system: HBV replication in HepAD38 cells; test: Anti-HBV replication assay in HepAD38 cells (QPCR of extracellular HBV DNA); format: cell-based, HBV (genotype D, serotype ayw); details: Hepatitis B virus, 168 h, 7 days incubation, extracellular HBV DNA by QPCR, read-out: Anti-HBV EC50
Method in brief: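 Tet-off HepAD38, 7-day compound exposure ([…], 1 log10 steps, DMSO vehicle), 37 °C. Extracellular HBV DNA by QPCR, copies/mL via standard curve, % inhibition vs vehicle, EC50 by 4-parameter regression. Entecavir as positive control.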

| Compound | CC50 at 7 days [1] | EC50 [2] |
| --- | --- | --- |
| Cc1cc(NC(=O)c2c(C)c(C(=O)C(=O)N[C@@H]3CCCNC3=O)n(C)c2C)ccc1F [Example 673, (R)-N-(4-fluoro-3-methylphenyl)-1,2,4-trimethyl-5-(2-oxo-2-((2-oxopiperidin-3-yl)amino)acetyl)-1H-pyrrole-3-carboxamide] | > 30000 nM | < 50 nM |
| Cc1c(C(=O)Nc2ccc(F)c(F)c2)c2n(c1C(=O)C(=O)NC1(CO)CCC1)CCCC2 [Example 460, N-(3,4-difluorophenyl)-3-(2-((1-(hydroxymethyl)cyclobutyl)amino)-2-oxoacetyl)-2-methyl-5,6,7,8-tetrahydroindoline-1-carboxamide] | 5000 to 30000 nM | < 50 nM |
| Cc1c(C(=O)Nc2ccn(C)n2)c2n(c1C(=O)C(=O)NC(C)(C)CO)CCCC2 [Example 756, 3-(2-((1-hydroxy-2-methylpropan-2-yl)amino)-2-oxoacetyl)-2-methyl-N-(1-methyl-1H-pyrazol-3-yl)-5,6,7,8-tetrahydroindolizine-1-carboxamide] | > 30000 nM | 50 to 499 nM |
| O=C(NC1(CO)CC(F)(F)C1)C(=O)c1c(Cl)c(C(=O)Nc2ccc(F)c(Cl)c2)c2n1CCCC2 [Example 515, 2-chloro-N-(3-chloro-4-fluorophenyl)-3-(2-((3,3-difluoro-1-(hydroxymethyl)cyclobutyl)amino)-2-oxoacetyl)-5,6,7,8-tetrahydroindolizine-1-carboxamide] | 5000 to 30000 nM | < 50 nM |
| Cc1c(C(=O)Nc2nccs2)c2n(c1C(=O)C(=O)NC1(CO)CCC1)CCCC2 [Example 751] | > 30000 nM | 50 to 499 nM |
| Cc1cc(NC(=O)c2c(Cl)c(C(=O)C(=O)NCC(C)(C)O)n3c2CCC3)cnc1F [Example 578, 6-chloro-N-(6-fluoro-5-methylpyridin-3-yl)-5-(2-((2-hydroxy-2-methylpropyl)amino)-2-oxoacetyl)-2,3-dihydro-1H-pyrrolizine-7-carboxamide] | > 30000 nM | 500 to 1000 nM |
| Cc1cc(NC(=O)c2cc(C(=O)C(=O)NC(C)(C)C)n(C)c2)ccc1F [Example 1, 5-(2-(tert-butylamino)-2-oxocetyl)-N-(4-fluoro-3-methylphenyl)-1-methyl-1H-pyrrole-3-carboxamide] | > 30000 nM | < 50 nM |
| Cc1cc(NC(=O)c2c(C)c(C(=O)C(=O)N[C@H]3COC[C@@H]3N3CCOCC3)n(C)c2C)ccc1F [Example 711, N-(4-fluoro-3-methylphenyl)-1,2,4-trimethyl-5-(2-(((3R,4R)-4-morpholinotetrahydrofuran-3-yl)amino)-2-oxoacetyl)-1H-pyrrole-3-carboxamide] | > 30000 nM | < 50 nM |
| Cc1c(C(=O)Nc2ccc(F)nc2)c(C)n(C)c1C(=O)C(=O)NC1(C)CCOCC1 [Example 325, N-(6-fluoropyridin-3-yl)-1,2,4-trimethyl-5-(2-((4-methyltetrahydro-2H-pyran-4-yl)amino)-2-oxoacetyl)-1H-pyrrole-3-carboxamide] | > 30000 nM | 50 to 499 nM |
| Cc1cc(NC(=O)c2c(C)c(C(=O)C(=O)NC3CCN(c4nccs4)CC3)n(C)c2C)ccc1F [Example 656] | 5000 to 30000 nM | < 50 nM |
| Cc1cc(NC(=O)c2cc(C(=O)C(=O)NC[C@H](O)CO)n3c2CCCC3)ccc1F [Example 416, (S)-3-(2-((2,3-dihydroxypropyl)amino)-2-oxoacetyl)-N-(4-fluoro-3-methylphenyl)-5,6,7,8-tetrahydroindolizine-1-carboxamide] | > 30000 nM | > 1000 nM |
| Cc1noc([C@@H](NC(=O)C(=O)c2c(C)c(C(=O)Nc3ccc(F)c(C)c3)c(C)n2C)C(C)C)n1 [Example 145, (S)-N-(4-fluoro-3-methylphenyl)-1,2,4-trimethyl-5-(2-((2-methyl-1-(3-methyl-1,2,4-oxadiazol-5-yl)propyl)amino)-2-oxoacetyl)-1H-pyrrole-3-carboxamide] | > 30000 nM | < 50 nM |
| Cc1cc(NC(=O)c2c(C)c(C(=O)C(=O)N[C@H]3CC[C@@H](C#N)CC3)n(C)c2C)ccc1F [Example 283] | 5000 to 30000 nM | < 50 nM |
| Cc1cc(NC(=O)c2c(C)c(C(=O)C(=O)NC3(CO)CC(F)(F)C3)n(CCF)c2C)ccc1F [Example 179, 5-(2-((3,3-difluoro-1-(hydroxymethyl)cyclobutyl)amino)-2-oxoacetyl)-N-(4-fluoro-33-methylphenyl)-1-(2-fluoroethyl)-2,4-dimethyl-1H-pyrrole-3-carboxamide] | 5000 to 30000 nM | < 50 nM |
| Cc1cnc(C(NC(=O)C(=O)c2c(C)c(C(=O)Nc3ccc(F)c(C)c3)c(C)n2C)C2CC2)s1 (centres unmarked) [Example 83, 5-(2-((cyclopropyl(5-methylthiazol-2-yl)methyl)amino)-2-oxoacetyl)-N-(4-fluoro-3-methylphenyl)-1,2,4-trimethyl-1H-pyrrole-3-carboxamide] | 5000 to 30000 nM | < 50 nM |
| Cc1noc([C@H](NC(=O)C(=O)c2c(Cl)c(C(=O)Nc3ccc(F)c(C)c3)c3n2CCC3)C(C)C)n1 [Example 544, (R)-6-chloro-N-(4-fluoro-3-methylphenyl)-5-(2-((2-methyl-1-(3-methyl-1,2,4-oxadiazol-5-yl)propyl)amino)-2-oxoacetyl)-2,3-dihydro-1H-pyrrolizine-7-carboxamide] | > 30000 nM | < 50 nM |
| COCC1(CNC(=O)C(=O)c2c(C)c(C(=O)Nc3ccc(F)c(C)c3)c(C)n2C)CCCCC1 [Example 358, N-(4-fluoro-3-methylphenyl)-5-(2-(((1-(methoxymethyl)cyclohexyl)methyl)amino)-2-oxoacetyl)-1,2,4-trimethyl-1H-pyrrole-3-carboxamide] | > 30000 nM | < 50 nM |
| O=C(N[C@H]1COC[C@@H]1O)C(=O)c1c(Cl)c(C(=O)Nc2ccc(F)c(Cl)c2)c2n1CCCC2 [Example 513, 2-chloro-N-(3-chloro-4-fluorophenyl)-3-(2-(((3S,4R)-4-hydroxytetrahydrofuran-3-yl)amino)-2-oxoacetyl)-5,6,7,8-tetrahydroindolizine-1-carboxamide] | > 30000 nM | 50 to 499 nM |
| Cc1c(C(=O)Nc2ccc(F)nc2)c(C)n(C)c1C(=O)C(=O)NC(C)(C)CN1CCOCC1 [Example 350, N-(6-fluoropyridin-3-yl)-1,2,4-trimethyl-5-(2-((2-methyl-1-morpholinopropan-2-yl)amino)-2-oxoacetyl)-1H-pyrrole-3-carboxamide] | > 30000 nM | 500 to 1000 nM |
| CC(=O)N1C[C@@H]2[C@H](C1)[C@H]2NC(=O)C(=O)c1c(C)c(C(=O)Nc2ccc(F)c(C)c2)c(C)n1C [Example 643, 5-(2-(((1R,5S,6s)-3-acetyl-3-azabicyclo[3.1.0]hexan-6-yl)amino)-2-oxoacetyl)-N-(4-fluoro-3-methylphenyl)-1,2,4-trimethyl-1H-pyrrole-3-carboxamide] | > 30000 nM | 50 to 499 nM |
| CNC(=O)[C@H](NC(=O)C(=O)c1c(C)c(C(=O)Nc2ccc(F)c(C)c2)c(C)n1C)C(C)C [Example 106, (R)-N-(4-fluoro-3-methylphenyl)-1,2,4-trimethyl-5-(2-((3-methyl-1-(methylamino)-1-oxobutan-2-yl)amino)-2-oxoacetyl)-1H-pyrrole-3-carboxamide] | 500 to 4990 nM | < 50 nM |
| Cc1c(C(=O)Nc2ccc(F)c(Cl)c2)c2n(c1C(=O)C(=O)NC1(CO)CC1)CCCC2 [Example 453, N-(3-chloro-4-fluorophenyl)-3-(2-((1-(hydroxymethyl)cyclopropyl)amino)-2-oxoacetyl)-2-methyl-5,6,7,8-tetrahydroindolizine-1-carboxamide] | > 30000 nM | 50 to 499 nM |
| Cc1cc(NC(=O)c2cc(C(=O)C(=O)NC(C)(C)C)n3c2CNCC3)ccc1F [Example 588, 6-(2-(tert-butylamino)-2-oxoacetyl)-N-(4-fluoro-3-methylphenyl)-1,2,3,4-tetrahydropyrrolo[1,2-a]pyrazine-8-carboxamide] | 5000 to 30000 nM | 50 to 499 nM |
| COC(=O)[C@@H](NC(=O)C(=O)c1c(C)c(C(=O)Nc2ccc(F)c(C)c2)c(C)n1C)C1CCCCC1 [Example 55, methyl (S)-2-cyclohexyl-2-(2-(4-((4-fluoro-3-methylphenyl)carbamoyl)-1,3,5-trimethyl-1H-pyrrol-2-yl)-2-oxoacetamido)acetate] | 500 to 4990 nM | 500 to 1000 nM |
| Cc1c(C(=O)Nc2ccc(F)c(F)c2)c2n(c1C(=O)C(=O)N[C@H]1C[C@H](O)C1)CCCC2 [Example 456, N-(3,4-difluorophenyl)-3-(2-(((1r,3r)-3-hydroxycyclobutyl)amino)-2-oxoacetyl)-2-methyl-5,6,7,8-tetrahydroindolizine-1-carboxamide] | > 30000 nM | 500 to 1000 nM |
| Cc1cc(NC(=O)c2c(Cl)c(C(=O)C(=O)NC(C)(C)C)n(C)c2C)ccc1F [Example 363, 5-(2-(tert-butylamino)-2-oxoacetyl)-4-chloro-N-(4-fluoro-3-methylphenyl)-1,2-dimethyl-1H-pyrrole-3-carboxamide] | > 30000 nM | < 50 nM |
| Cc1cc(NC(=O)c2c(C)c(C(=O)C(=O)NC(C)(C)C)n(CCF)c2C)ccc1F [Example 115, 5-(2-(tert-butylamino)-2-oxoacetyl)-N-(4-fluoro-3-methylphenyl)-1-(2-fluoroethyl)-2,4-dimethyl-1H-pyrrole-3-carboxamide] | > 30000 nM | < 50 nM |
| CC(C)(O)CNC(=O)C(=O)c1c(Cl)c(C(=O)Nc2ccc(F)c(Cl)c2)c2n1CCC2 [Example 557, 6-chloro-N-(3-chloro-4-fluorophenyl)-5-(2-((2-hydroxy-2-methylpropyl)amino)-2-oxoacetyl)-2,3-dihydro-1H-pyrrolizine-7-carboxamide] | 5000 to 30000 nM | < 50 nM |
